The record followed here is article PMC6418145 (Scientific Reports, 2019).

Data set [1] deals with C57BL/6 J mice. As to the kind of experiment: 5-choice serial-reaction-time task (5-CSRTT), unspecific behavioural effects. It is filed as in vivo. The protocol: Training was performed in 16 standard mouse Bussey-Saksida touchscreen chambers (model #80614, Campden Instruments Ltd., UK), previously described in detail. In short, each trapezoidal operant chamber was placed in a sound- and light- attenuating box individually equipped with a house light, a reward magazine with light, a liquid reward dispenser, a sound generator, a perforated stainless steel floor, and a touchscreen placed at the wide end of the chamber and covered permanently by a black acrylic glass 5-hole mask. The reward magazine, located opposite the touchscreen, was connected to a liquid dispenser delivering strawberry milk (Yazoo®). Infrared break-beam sensors located inside and on the front of the food magazine as well as on the touch-screen walls allowed the detection of reward delivery and the animal’s locomotor activity, respectively. Four individual chambers were connected to one computer for controlling the task flow using the graphical task design software ABET II Touch (model #89505, Campden Instruments Ltd., UK) and the WhiskerServer software (Cambridge University Technical Services Ltd., UK)[27].
Mice were habituated to the chambers for three consecutive 20-min sessions during which the house light and magazine light were permanently on. At the start of each session, 30 µl strawberry milk was delivered. Every 15 s after head entry into the magazine, an additional 30 µl strawberry milk was delivered. Head entry turned the magazine light off.
The 5-CSRTT training protocol, originally designed for rats[28], was similar as that previously described for mice[29]–[31]. The training comprised six stages with 30-min sessions initiated by the illumination of the house and magazine lights and delivery of 20 µl strawberry milk. Collection of the reward switched the magazine light off and started the first trial.
In the first stage, the middle window was permanently illuminated, which was turned off when touched, followed by reward delivery (20 µl) with illumination of the magazine light. Head entry switched off the magazine light. Mice performing 30 trials in a session continued to the next stage. Training sessions in stages 2–6 comprised a maximum of 120 trials. Collection of the reward initiated the inter-trial interval (ITI) followed by the illumination of one pseudo-randomly selected aperture for a fixed stimulus duration (SD). Any touch to the screen during the ITI was classified as a premature response which was not counted as a trial and terminated the current trial. Following stimulus detection, a nose poke to the corresponding aperture within a fixed time interval (limited hold; LH) was required for reward delivery. Premature responses made during the ITI, incorrect responses, and the omission of a response within the LH led to a timeout (TO, house light switched off for 4 s) instead of delivery of reward. Correct, incorrect and omitted responses defined the total number of trials. […] The criteria to pass the last stage and reach baseline performance were to complete >30 correct trials, with ≥80% accuracy and ≤30% omissions. Percentage accuracy was defined as the number of correct trials divided by the sum of correct and incorrect trials. Percentage omissions were calculated in terms of the number of completed trials. Premature responding was calculated as a percentage of completed trials. Perseveration was calculated as the number of additional responses made in the same aperture following a correct response. Additionally, the correct-response latency (time from stimulus presentation to correct response) and reward latency (time from correct response to reward collection) were measured across all trials.
Either one or up to three days before, as well as one day after the task challenge, mice were trained at baseline conditions to check for any unexpected changes in task performance (e.g. by long lasting drug- or challenge-induced effects). […]

Data set [2] concerns the target PDE3A (Homo sapiens, UniProt Q14432). Nature of the data set: Off-target enzyme assay. It is filed as biochemical. The settings on record: 10 μM compound, not shown.

Bounds are passed on as bounds.

Chain of PDE3A (Q14432 whole entry, species assumed): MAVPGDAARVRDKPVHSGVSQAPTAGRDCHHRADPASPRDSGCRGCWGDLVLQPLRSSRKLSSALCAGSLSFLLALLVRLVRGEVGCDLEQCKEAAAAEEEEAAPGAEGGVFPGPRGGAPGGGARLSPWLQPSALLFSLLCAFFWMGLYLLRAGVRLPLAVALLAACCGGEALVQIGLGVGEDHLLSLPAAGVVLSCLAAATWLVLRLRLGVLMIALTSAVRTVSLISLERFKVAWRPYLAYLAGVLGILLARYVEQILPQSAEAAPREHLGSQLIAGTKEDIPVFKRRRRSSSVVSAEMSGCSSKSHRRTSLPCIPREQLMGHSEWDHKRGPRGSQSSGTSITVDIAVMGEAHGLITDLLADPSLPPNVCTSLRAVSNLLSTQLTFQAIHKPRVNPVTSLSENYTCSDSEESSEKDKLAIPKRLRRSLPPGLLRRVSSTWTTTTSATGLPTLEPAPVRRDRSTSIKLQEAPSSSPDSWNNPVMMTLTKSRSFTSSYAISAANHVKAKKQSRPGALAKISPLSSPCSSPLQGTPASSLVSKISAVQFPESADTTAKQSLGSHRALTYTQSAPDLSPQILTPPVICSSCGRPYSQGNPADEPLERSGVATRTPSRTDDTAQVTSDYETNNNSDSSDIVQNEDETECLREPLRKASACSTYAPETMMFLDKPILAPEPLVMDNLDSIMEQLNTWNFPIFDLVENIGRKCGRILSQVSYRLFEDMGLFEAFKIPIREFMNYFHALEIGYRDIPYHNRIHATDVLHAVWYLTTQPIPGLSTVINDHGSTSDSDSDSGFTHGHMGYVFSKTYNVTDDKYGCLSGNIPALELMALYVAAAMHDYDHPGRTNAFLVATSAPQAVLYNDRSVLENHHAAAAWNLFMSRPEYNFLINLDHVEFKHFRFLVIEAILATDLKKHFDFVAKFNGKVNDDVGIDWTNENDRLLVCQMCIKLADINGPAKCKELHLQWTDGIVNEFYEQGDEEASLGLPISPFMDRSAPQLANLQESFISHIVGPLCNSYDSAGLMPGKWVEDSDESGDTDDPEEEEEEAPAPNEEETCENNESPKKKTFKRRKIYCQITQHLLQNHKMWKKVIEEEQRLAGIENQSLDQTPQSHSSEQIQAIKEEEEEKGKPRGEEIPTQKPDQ

As for `C[N+]1([O-])CCN(C2=Nc3cc(Cl)ccc3Nc3ccccc32)CC1` [CNO, clozapine-N-oxide], the “behavioural changes in 5-CSRTT parameters” value in data set [1] (CNO 3.5 or 10 mg/kg i.p., 10 min before test, vs vehicle) is listed as “did not produce any significant behavioural changes in most 5-CSRTT parameters”. In addition, the “number of perseverative responses” value in data set [1] (CNO highest dose (10 mg/kg) i.p.) is “not at the highest dose”; in data set [1] (CNO intermediate dose (3.5 mg/kg) i.p., p = 0.0142) it was “modest increase”. The inhibition in data set [2] is reported as below 20%.

One may read the inhibition as the percentage by which the read-out fell short of the control.
